Data published in patent publication US20210062367A1, “METHOD FOR PRODUCING LIBRARY FOR USE IN PREDICTION OF ACTION OF SUBSTANCE OF INTEREST ON LIVING BODY, AND METHOD FOR […] OF SUBSTANCE OF INTEREST ON LIVING BODY BASED ON CHANGE IN ACTION PARAMETER OR THE LIKE OF ZEBRAFISH” (SUNTORY HOLDINGS LIMITED, priority 2017, published 2021).

Assays:
zebrafish [1] = test: Zebrafish behavioral parameter measurement (Danio Vision/Ethovision) with cluster analysis against library of Suvorexant and Imipramine; assay type: in vivo, MieKomachi 002 Line 8 dpf; conditions: 8beta 10 μM; estimated from similarity to Suvorexant
Experimental: 0.3×Danieau's solution (19.3 mM NaCl, 0.23 mM KCl, 0.23 mM MgSO4, 0.2 mM Ca(NO3)2, 1.7 mM HEPES, pH 7.2) is used as a water bath, and a 0.1% DMSO-containing water bath is used.
Zebrafish is prepared by growing it under the following conditions to 8 dpf.
Zebrafish: MieKomachi 002 Line 8 dpf
For each substance of known action, the reagent in which the substance was dissolved in the water bath and adjusted at a concentration of 1 μM was prepared.
(1) Add 1 ml of the water bath to each well of a 48-well plate. Transfer one zebrafish (8 dpf) per well thereto and adjust the temperature to 28° C. and maintain the temperature for from 30 minutes to 1 hour. […]
(§1) The repetition of light and dark periods with cycled of a light period for 3 hours (period L1)—a dark period for 10 hours (period D)—a light period for 11 hours (period L2) is performed and the behavior of zebrafish is recorded for 24 hours. […]
(§2) For each class of mobility states, the indicators DMF, IZF, DTZ, and TA are measured. […]
(§3) (2) Store the measured behavioral parameters as raw data of the following forms. • Type of reagent (any of the reagents prepared in [Preparation of reagents for production of library] or control) • Mobility state (95 to 65 (high speed), 65 to 35 (moderate speed), or 35 to 05 (low speed)) • Repetition of light and dark periods (L1, D, or L2) • Indicator (DMF, IZF, DTZ, or TA) […]

nfi13-6 = test: Zebrafish oligo-DNA microarray gene expression with cluster analysis together with behavioral data (8beta vs library); assay type: in vivo, MieKomachi 002 Line 8 dpf; conditions: 8beta 10 μM; nfi13-6 clusters with H-, M-, L-DMT D, L1, L2
Experimental: (5) Subsequently, link the administration of the substance of known action and the change in expression levels of genes using microarray experiments.
(§4) The microarray experiments can be performed using Zebrafish oligo-DNA micro array Ver.3.0 manufactured by Agilent Technologies, Inc. according to protocol.
Based on array data obtained by this microarray experiment, the normalization of the data in the arrays is performed in the procedure described above using software in Gene Springs.
(3) Link the administration of 8beta and the change in expression levels of genes using microarray experiments.
The microarray experiments can be performed using zebrafish oligo-DNA micro array Ver.3.0 manufactured by Agilent Technologies, Inc. according to protocol.
(§5) Based on array data obtained by this microarray experiment, the normalization of the data in the arrays is performed in the procedure described above using software in Gene Springs and data among arrays are normalized by a method using the Z score.
Processing of statistically matching and analyzing the numerical data for Suvorexant and Imipramine recorded in the library and the numerical data with the administration of 8beta was conducted by the cluster analysis as follows. […]

zebrafish [2] = test: Zebrafish behavioral parameter measurement (Danio Vision/Ethovision) with cluster analysis against library of Diazepam and Haloperidol; assay type: in vivo, Zebrafish (Danio rerio), AB Line 6 dpf; conditions: EGCG 0.003 mg/mL; estimated from similarity to Diazepam
Experimental: 0.3×Danieau's solution (19.3 mM NaCl, 0.23 mM KCl, 0.23 mM MgSO4, 0.2 mM Ca(NO3)2, 1.7 mM HEPES, pH 7.2) is used as a water bath.
Zebrafish is prepared by growing it under the following conditions to 6 dpf.
For each substance of known action, the reagent in which the substance was dissolved in the water bath and adjusted at a concentration of 10 μM was prepared.
(1) Add 1 ml of the water bath to each well of a 48-well plate. Transfer one zebrafish (6 dpf) per well thereto and adjust the temperature to 28° C. and maintain the temperature for from 30 minutes to 1 hour.
(2) Remove the liquid in the 48-well plate with a pipette and then add 1 ml/well of any of the reagents. […]
as §1, §2, §3

per1b = test: Zebrafish oligo-DNA microarray gene expression with cluster analysis together with behavioral data (EGCG vs library); assay type: in vivo, Zebrafish (Danio rerio), AB Line 6 dpf; conditions: EGCG 0.003 mg/mL; per1b clusters with L-DMT D, L-DMT L1, L-DMT L2
Experimental: This can be done by citing array data of Diazepam (GSE23157) and Haloperidol (GSE89780) from a public DB (Geo Datasets).
Based on these array data, the normalization of the data in the arrays is performed in the procedure described above using software in Gene Springs and data among arrays are normalized by a method using the Z score.
(3) Link the administration of EGCG and the change in expression levels of genes using microarray experiments.
as §4, §5
Processing of statistically matching and analyzing the numerical data for Diazepam and Haloperidol recorded in the library and the numerical data with the administration of EGCG was conducted by the cluster analysis as follows.
In the result of cluster analysis including data of change in expression levels of genes, the action and mechanism of EGCG can be estimated based on the Gene Ontrogy (GO) information of the gene expression data by paying attention on data having high correlation between EGCG and Diazepam (data clustered in close relation). […]

zebrafish [3] = conditions: modafinil given to zebrafish in bath; compared with ethanol; cited from earlier work

## C=C1C(=O)OC2C=C(C)CCC=C(C)CC(OC(=O)/C(C)=C/CO)C12 (stereo not drawn) [8beta, 8beta-(4′-hydroxytigloyloxy)costunolide]
Zebrafish [1]
  action estimated from closely related drug in cluster analysis: sleep action
nfi13-6
  gene expression data (nfi13-6), cluster analysis of change in expression levels: change with correlation between 8beta and Suvorexant

## O=C(O[C@@H]1Cc2c(O)cc(O)cc2O[C@@H]1c1cc(O)c(O)c(O)c1)c1cc(O)c(O)c(O)c1 [EGCG, epigallocatechin gallate]
Zebrafish [2]
  action estimated from closely related drug in cluster analysis: sedative action
per1b
  gene expression data (per1b), cluster analysis of change in expression levels: change with correlation between EGCG and Diazepam

## NC(=O)C[S+]([O-])C(c1ccccc1)c1ccccc1 (centres unmarked) [modafinil]
Zebrafish [3]
  action suggested by behavioral analysis of zebrafish: antianxiety action
